{
  "source": "patent US20090220612A1",
  "about": "“HOLLOW-FIBRE-BASED BIOCOMPATIBLE DRUG DELIVERY DEVICE WITH ONE OR MORE LAYERS” (priority 2005, published 2009)",
  "experiment": "Polymer degradation and in vitro 5-FU release from hollow fibres in PBS pH 7.4",
  "type": "physicochemical",
  "settings": "FIG. 30",
  "protocol": "0.07 g of each hollow fibre was weighed and immersed in 20 ml of de-ionised water in a screw-topped bottle. These were then placed on an orbital shaker maintained at a temperature of 37° C. The pH of the degradation medium was measured every two days to monitor the rate of generation of acidic byproducts. A Jenway (Model 3051) pH meter was used for this purpose.\nIn vitro drug release studies were carried out in phosphate buffer saline (PBS) at both room temperature (˜25° C.) and 37° C. PBS solution was applied to keep the degrading system at a constant pH 7.4 value. Every type of polymer fibre was cut into 10 pieces, with 5 cm each. At room temperature, each fibre piece was first sealed at one end with bio-adhesive, and was injected with liquid 5-FU with a syringe pump from the other open end before it was sealed. […] The amount of drug release was measured every 24 hours within the 3 months. The quantitative measurement of the amount of drug released was measured with a UV Spectrometer. A calibration curve was performed as the concentration versus absorbance for the drug in buffer (wavelength of absorption, □=266 nm (5-FU) and λ=298 nm (cisplatin and carboplatin) or atomic absorption spectroscopy) which was plotted in a logarithmic scale gave a straight line. […] The absorbance of the drug was noted. […]",
  "data": [
    {"smiles": "O=c1[nH]cc(F)c(=O)[nH]1", "note": "[5-FU, fluorouracil]", "values": [
      {"measurement": "effect on degradation and drug release rate of polymer hollow fibres", "value": "accelerates the degradation and drug release rate"}
    ]}
  ]
}
